Structures can show the parent of a compound that is named as a salt.
Key:
Assay type in all cases: cell-based
[1] = in vitro; settings: human
Description: (§1) Human PBMC Preparation. Fresh human PBMCs were isolated from screened donors, seronegative for HIV and HBV (Biological Specialty Corporation, Colmar, Pa.). Cells were pelleted/washed 2-3 times by low speed centrifugation and resuspension in Dulbecco's phosphate buffered saline (PBS) to remove contaminating platelets. The leukophoresed blood was then diluted 1:1 with PBS and layered over 14 mL of Ficoll-Hypaque density gradient (Lymphocyte Separation Medium, Cell Grow #85-072-CL, density 1.078+/−0.002 g/mL) in a 50 mL centrifuge tube and then centrifuged for 30 min at 600×g. Banded PBMCs were gently aspirated from the resulting interface and subsequently washed twice with PBS by low speed centrifugation. After the final wash, cells were enumerated by trypan blue exclusion and re-suspended at 1×10^6 cells/mL in RPMI 1640 supplemented with 15% Fetal Bovine Serum (FBS), 2 mM L-glutamine, 100 U/mL penicillin, […] streptomycin, and 4 μg/mL Phytohemagglutinin (PHA; Sigma, St. Louis, Mo.; cat #L1668). The cells were allowed to incubate for 48-72 h at 37° C. After incubation, PBMCs were centrifuged and resuspended in RPMI 1640 with 15% FBS, L-glutamine, penicillin, streptomycin, non-essential amino acids (MEM/NEAA; Hyclone; cat #SH30238.01), and 20 U/mL recombinant human IL-2 (R&D Systems Inc., Minneapolis, Minn.; cat #202IL). PBMCs were maintained in this medium at a concentration of 1-2×10^6 cells/mL, with twice-weekly medium changes until they were used in the assay protocol. Monocytes-derived-macrophages were depleted from the culture as the result of adherence to the tissue culture flask.
(§2) PBMC Assay. For the standard PBMC assay, PHA stimulated cells from at least two normal donors were pooled (mixed together), diluted in fresh medium to a final concentration of 1×10^6 cells/mL, and plated in the interior wells of a 96 well round bottom microplate at 50 μL/well (5×10^4 cells/well) in a standard formate developed by the Infectious Disease Research Department of the SRI. Pooling (mixing) of mononuclear cells from more than one donor was used to minimize the variability observed between individual donors, which results from quantitative and qualitative differences in HIV infection and overall response to the PHA and IL-2 of primary lymphocyte populations. Each plate contains virus control wells (cells plus virus) and experimental wells (drug plus cells plus virus). Test drug dilutions were prepared at a 2× concentration in microtiter tubes and 100 μL of each concentration was placed in appropriate wells using the standard format. 50 μL of a predetermined dilution of virus stock was placed in each test well (final MOI≈0.1). Separate plates were prepared identically without virus for drug cytotoxicity studies using an MTS assay system (described below; cytotoxicity plates also include compound control wells containing drug plus media without cells to control for colored compounds that affect the MTS assay). The PBMC cultures were maintained for seven days following infection at 37° C., 5% CO2. After this period, cell-free supernatant samples were collected for analysis of reverse transcriptase activity, and compound cytotoxicity was measured by addition of MTS to the separate cytotoxicity plates for determination of cell viability. Wells were also examined microscopically and any abnormalities were noted.
(§3) MTS Staining for PBMC Viability to Measure Cytotoxicity. At assay termination, the uninfected assay plates were stained with the soluble tetrazolium-based dye MTS (CellTiter 96 Reagent, Promega) to determine cell viability and quantify compound toxicity. MTS is metabolized by the mitochondria enzymes of metabolically active cells to yield a soluble formazan product, allowing the rapid quantitative analysis of cell viability and compound cytotoxicity. […] At termination of the assay, […] of MTS reagent was added per well and the microtiter plates were then incubated at 37° C., 5% CO2 to assess cell viability. […]

[2] = tested on: human PBMCs; assay: in vitro; settings: 7 days
Description: as §1, §2, §3

[3] = tested on: HIV-1 clade C K3016 in HUT-R5 cells; assay: Antiviral assay in HUT-R5 cells (p24), K3016; settings: Human immunodeficiency virus 1, 192 h, 8 days, mean ± SEM, 2 experiments
Description: Antiviral assays. HUT-R5 cells were infected with normalized HIV-1 clade C K3016 virus stocks at 37° C. for 1 h. Cells were then maintained for 8 days in the presence of serial dilutions of the compounds assayed. After 8 days, the HIV-1 p24 concentration in the virus supernatants was measured to monitor virus replication. The 50% inhibitory concentrations (IC50s) were determined that reduced HIV-1 p24 levels to 50% relative to DMSO-only controls.

C=C(C)[C@@H]1CC[C@]2(CCNC3CCN(CCO)CC3)CC[C@]3(C)[C@H](CC[C@@H]4[C@@]5(C)CC[C@H](OC(=O)CC(C)(C)CC(=O)O)C(C)(C)[C@@H]5CC[C@]43C)[C@@H]12 [Compound 51f, (3β)-17-[2-[[1-(2-Hydroxyethyl)piperidin-4-yl]amino]ethyl]-28-norlup-20(29)-en-3-ol, 3-(Hydrogen 3,3-Dimethylpentanedioate), Bis(trifluoroacetate) Salt]
CC50 at 7 days [1]: > 1000 nM | CC50 [2]: > 1000 nM

C=C(C)[C@@H]1CC[C@]2(CCNCCN3CCN(S(C)(=O)=O)CC3)CC[C@]3(C)[C@H](CC[C@@H]4[C@@]5(C)CC[C@H](OC(=O)CC(C)(C)C(=O)O)C(C)(C)[C@@H]5CC[C@]43C)[C@@H]12 [Compound 51ff, (3β)-17-[2-[[2-[4-(Methylsulfonyl)piperazin-1-yl]ethyl]amino]ethyl]-28-norlup-20(29)-en-3-ol, 3-(1-Hydrogen 2,2-Dimethylbutanedioate)]
IC50 [3]: 2.27 ± 0.56 nM | CC50 at 7 days [1]: > 1000 nM | CC50 [2]: > 1000 nM

C=C(C)[C@@H]1CC[C@]2(CCNCCN3CCS(=O)(=O)CC3)CC[C@]3(C)[C@H](CC[C@@H]4[C@@]5(C)CC[C@H](OC(=O)CC(C)(C)C(=O)O)C(C)(C)[C@@H]5CC[C@]43C)[C@@H]12 [Compound 51ee, (3β)-17-[[[2-[2-(1,1-Dioxothiomorpholin-4-yl)]Ethyl]Amino]Ethyl]-28-norlup-20(29)-en-3-ol, 3-(1-Hydrogen 2,2-Dimethylbutanedioate)]
IC50 [3]: 3.6 ± 0.22 nM | CC50 at 7 days [1]: > 1000 nM | CC50 [2]: > 1000 nM

C=C(C)[C@@H]1CC[C@]2(CCNCCN3CCN(Cc4ccccc4)CC3)CC[C@]3(C)[C@H](CC[C@@H]4[C@@]5(C)CC[C@H](OC(=O)CC(C)(C)C(=O)O)C(C)(C)[C@@H]5CC[C@]43C)[C@@H]12 [Compound 51hh, (3β)-17-[2-[[2-[4-(Phenylmethyl)piperazin-1-yl]ethyl]amino]ethyl]-28-norlup-20(29)-en-3-ol, 3-(1-Hydrogen 2,2-Dimethylbutanedioate)]
IC50 [3]: 3.89 ± 0.18 nM | CC50 at 7 days [1]: > 1000 nM | CC50 [2]: > 1000 nM

Reference: patent publication US11236122B2, “Triterpene amine derivatives” (DFH THERAPEUTICS, priority 2018, dated 2022)
